# Entries after “also recorded” stand apart in the source; their conditions may differ.
# Columns and labels:
# [1] = tested on: purified sensory neurons from DRG; assay: Neurite outgrowth in purified (neuron-enriched) sensory neuron cultures; type: cell-based, E18 C57B1/6 mice; details: 1 μM GM-284, 6 days
# Procedure: To generate neuron-enriched DRG cultures, DRGs were isolated from embryonic (E18) C57B1/6 mice, and processed in dissection media containing Hank's CMF saline, with 0.05% collagenase and 0.25% trypsin, for 30 min at 37° C. Neurons were obtained by trituration of ganglia with fire-polished Pasteur pipettes of decreasing diameter. Thereafter, the cellular suspension was washed twice in Dulbecco's modified Eagle medium supplemented with 10% fetal calf serum and 2% glucose. Freshly triturated neurons were incubated in 10% FCS-DMEM supplemented with 5-fluorouracil (Sigma, F-0503) and uridine (Sigma, U3003) for 48 h to remove non-neuronal proliferating cells, in the presence of either 100 ng/ml NGF or 1 μM GM-284. After 48 h, cultures were continued with these agents, but without mitotic inhibitors, for an additional 6 days.
# DRG explants are complex tissues, containing both Schwann cells and neurons. Accordingly, it is possible that GM-284 acts to promote neurite outgrowth directly, by acting on neurons, or indirectly, by acting on adjacent Schwann cells, which then act to promote neuritogenesis. To differentiate these possibilities, sensory neurons from DRG were purified as described (Wood et al., Studies of the initiation of myelination by Schwann cells. Ann. NY Acad. Sci., 605:1-14, 1990), and contaminating Schwann cells were removed by treatment of the cultures with anti-mitotic drugs.
# [2] = tested on: DRG explants; assay: Neurite outgrowth from DRG explants; type: cell-based, C57B1/6 mice; details: 1 μM GM-284, 96 h
# Procedure: (A) DRGs were explanted and cultured alone, (panel i), in the presence of 100 ng/ml NGF (panel ii) or in the presence of 1 μM GM-284 (panel iii), for 96 h. At the end of the culture period, the tissue was fixed and stained for expression of neuron-specific β-III tubulin. […] (B) Both Schwann cells and neurons are present in DRG explants. To determine if the neuritogenic effects of GM-284 are direct, acting on neurons, or indirect, acting through Schwann cells, sensory neurons from E18 mice were isolated and treated with either NGF (left panel) or GM-284 (right panel) for 6 days.
# Explanted DRG ganglia were dissected from P1 to P3 C57B1/6 mice, as previously described (Weinstein et al., Targeted expression of an oncogenic adaptor protein v-Crk potentiates axonal growth in dorsal root ganglia and motor neurons in vivo. Brain Res. Dev. Brain Res., 116:29-39, 1999). Briefly, DRGs were dissected and placed in ice-cold PBS containing 2% glucose, then transferred onto polyornithine/laminin-coated tissue culture plates (Biocoat, Becton Dickinson Laboratories) in DMEM-plating medium overnight. […] Cultures were kept at 37° C., in 5% CO2, for up to 1 week, at which time the extent of well-defined neurite outgrowth was assessed.
# [3] = tested on: SCIP and Brn-5 expression in Schwann cells; assay: RNA (Northern) blot for SCIP and Brn-5 in Schwann cells; type: cell-based, Sprague-Dawley rats; details: 1 μM GM-284, 48 h, growth-factor-starved Schwann cells
# Procedure: To further assess the ability of GM-284 to regulate these genes, Schwann cells were maintained in DMEM containing FCS, and without forskolin or GGF, for 48 h, to rest the cells. Thereafter, 1 μM GM-284 was added for an additional 48 h. Total RNA was isolated, run on a denaturing agarose gel, transferred to a nylon filter, and hybridized with probes complimentary to either SCIP (panel a) or Brn-5 (panel b). Cyclophilin RNA was probed as a loading control.
# 20 μg of total RNA was prepared as previously described (Wu et al., The POU gene brn-5 is induced by neuregulin and is restricted to myelinating Schwann cells. Mol. Cell Neurosci., 17:683-95, 2001). Thereafter, total RNA was separated on 1% MOPS-formaldehyde agarose gels, transferred to MAGNA nylon transfer membrane (MSI), UV cross-linked (120 mJ/cm 2) using a UV crosslinker (FB-UVXL-1000, Fisher Biotech), and hybridized with ^32P-dCTP random-labeled (RTS RadPrime DNA Labeling System, Gibco BRL), probes purified by Sephadex G-50 column (Pharmacia, Peapack, N.J.).
# The Brn-5 probe contains the rat Brn-5 coding region (generated by PCR), and was kindly provided by Dr. Bogi Andersen at the University of California at San Diego. This probe is 93% identical to the mouse Brn-5 mRNA. The SCIP probe was a 1.10-kb SmaI cDNA fragment from mouse SCIP DNA. […]
smiles,measurement,setting,value
CCC(C)(C)C(=O)C(=O)N1CCC[C@H]1c1nnc([C@@H]2CCCN2C(=O)C(=O)C(C)(C)CC)o1 [GM-284],neurite outgrowth in purified neuronal cultures,[1],complete failure to elaborate processes; also recorded: failed to promote axonogenesis; also recorded: no neurite outgrowth
same,neurite outgrowth from DRG explants,[2],as active as NGF in inducing neuritogenesis; also recorded: indistinguishable from NGF-treated sister explants; also recorded: comparable outgrowth in the NGF and GM-284 treated cultures
same,SCIP and Brn-5 RNA expression relative to vehicle-treated cells,[3],significantly induced; also recorded: induces Schwann cell expression of SCIP (Oct-6) and Brn-5
